In one series the test system is Artemia. The series is described as follows: Cytotoxicity against brine shrimps larvae assessed as mortality after 48 hrs. Format: organism-based. The note with it: in vivo.
The subject of the next series is A549. As to the kind of experiment: Cytotoxicity against human A549 cells after 48 hrs by alamar blue assay. Format: functional, cell-based. The conditions noted are these: A549, 48 h.
Series [1] in a line: Cytotoxicity against human PC3 cells after 48 hrs by alamar blue assay. Format: functional, cell-based. The conditions noted are these: PC-3, 48 h. (The colour change of resazurin is a common sign of viable cells or microbes.)
In another series the test system is HT-29. The series is described as follows: Cytotoxicity against human HT-29 cells after 48 hrs by alamar blue assay. Format: functional, cell-based. The conditions noted are these: HT-29, 48 h.
The subject of a further series is HeLa. The series is described as follows: Cytotoxicity against human HeLa cells after 48 hrs by alamar blue assay. Format: functional, cell-based.
A further series deals with MDA-MB-231. As to the kind of experiment: Cytotoxicity against human MDA-MB-231 cells after 48 hrs by alamar blue assay. Format: functional, cell-based. The conditions noted are these: MDA-MB-231, 48 h.

Where a SMILES comes first, the peptide text is derived from it. [ ]: non-standard residue; d: D form. The star is where a group is joined. Oct7ynoyl(2R-Me) = C#CCCCC[C@@H](C)C(=O)*; NMeF = CN[C@@H](Cc1ccccc1)C(=O)O; NMeI = CC[C@H](C)[C@H](NC)C(=O)O; NMeV = CN[C@H](C(=O)O)C(C)C; NMeA = CN[C@@H](C)C(=O)O

In the case of `COc1cccc2c1C(=O)c1c(O)c3c(c(O)c1C2=O)C[C@@](O)(C(=O)CO)C[C@@H]3O[C@H]1C[C@H](N)[C@H](O)[C@H](C)O1` [DOXORUBICIN], the Activity result with Artemia is given as “Non-toxic”. The figures for the IC50 (with A549; in series [1]) were 14 µM and 17 µM, respectively.

Regarding `C#CCCCC[C@@H](C)C(=O)N(C)[C@H](C(=O)N(C)[C@H](C(=O)N[C@H](C(=O)N(C)[C@@H](C)C(=O)N(C)[C@@H](Cc1ccccc1)C(N)=O)C(C)C)C(C)C)C(C)C` [ALMIRAMIDE B] ({Oct7ynoyl(2R-Me)}-[NMeV][NMeV]V[NMeA][NMeF]-NH2), the IC50 (usually the midpoint of a concentration-inhibition curve) in the series on A549 amounted to 76 µM; in the series on HT-29, 100 µM; in the series on HeLa it was 53 µM; in series [1], 107 µM; in the series on MDA-MB-231, 13 µM.

As to `C#CCCCC[C@@H](C)C(=O)N(C)[C@H](C(=O)N(C)[C@H](C(=O)N[C@H](C(=O)N(C)[C@H](C(=O)N[C@@H](C)C(N)=O)[C@@H](C)CC)[C@@H](C)CC)C(C)C)C(C)C` ({Oct7ynoyl(2R-Me)}-[NMeV][NMeV]I[NMeI]A-NH2), the 50% inhibitory concentration (IC50) amounted to 59 µM in the series on A549; 91 µM in the series with HT-29; 17 µM in the series with HeLa; 62 µM in series [1]; 821 µM in the series on MDA-MB-231.

Source of the values: ChEMBL document CHEMBL3351572, “Almiramide D, cytotoxic peptide from the marine cyanobacterium Oscillatoria nigroviridis” (Bioorg Med Chem, 2014).
